# How the values were obtained:
# [1] = system: S. epidermidis ATCC 12228; test: Diffusion-well method, inhibition zones; assay type: cell-based, Staphylococcus epidermidis; conditions: 500 µg/mL, wells 10 mm
# Protocol: (§1) The antibacterial activity of tested samples was assessed against both gram-positive bacteria (Staphylococcus aureus ATCC 25923, Staphylococcus aureus ATCC 6538, Staphylococcus epidermidis ATCC 12228, Enterococcus faecalis ATCC 29212, Listeria monocytogenes ATCC 19115, Bacillus subtilis ATCC 6633, Bacillus cereus ATCC 10876) and gram-negative bacteria (Escherichia coli ATCC 10530, Salmonella typhimurium ATCC 14028). Antibacterial properties were evaluated using both the dilution method (employing DMSO and 96-well plates) and the diffusion-well method (using Mueller Hinton Agar, Merck, Germany).
# (§2) 24 hour bacterial cultures with a density of 1–2 × 10^8 CFU mL^−1 were plated (0.1 mL) on Mueller–Hinton Agar (Merck, Germany). Subsequently, wells with a diameter of 10 mm were cut out from and filled with 100 μL of the tested compound at a concentration of 10–500 μg mL^−1 (diluted in DMSO). After an 18-hour incubation at either 30 °C (for Bacillus ssp.) or 37 °C (for other tested microorganisms), the inhibition zones around the wells were measured, and the results were expressed in millimetres (Table S9 ^†).
# S. aureus ATCC 25923 = test: Diffusion-well method, inhibition zones; assay type: cell-based, Staphylococcus aureus; conditions: 500 µg/mL, wells 10 mm
# Protocol: as §1, §2
# S. aureus ATCC 6538 = test: Diffusion-well method, inhibition zones; assay type: cell-based, Staphylococcus aureus; conditions: 500 µg/mL, wells 10 mm
# Protocol: as §1, §2
# [2] = system: Staphylococcus aureus ATCC 25923; test: MIC determination; assay type: cell-based; conditions: S. aureus ATCC 25923, 18 h
# Protocol: as §1
# (§3) The minimum inhibitory concentrations (MICs) of the tested samples were evaluated against a panel of reference microorganisms obtained from the American Type Culture Collection (ATCC), including Gram-negative bacteria (Escherichia coli ATCC 10530, Salmonella typhimurium ATCC 14028), and Gram-positive bacteria (Staphylococcus aureus ATCC 25923, Staphylococcus aureus ATCC 6538, Staphylococcus epidermidis ATCC 12228, Enterococcus faecalis ATCC 29212, Listeria monocytogenes ATCC 19115, Bacillus subtilis ATCC 6633), and one strain (Bacillus cereus ŁOCK 0807) obtained from the Pure Culture of Industrial Microorganisms of the Institute of Fermentation Technology and Microbiology ŁOCK 105 (Łódź, Poland).
# (§4) The microorganism cultures with a density of 1.5 × 10^8 CFU mL^−1 (corresponding to a McFarland standard of 0.5) were plated on Mueller–Hinton Agar (Merck, Germany) following the procedures recommended by the European Committee on Antimicrobial Susceptibility Testing (EUCAST).[47] Wells measuring 10 mm in diameter were cut into the medium. The tested compounds were dissolved in a DMSO solution, which was recommended due to their chemical structures. Subsequently, 100 μL of prepared solutions containing the tested compounds at concentrations ranging from x μg mL^−1 to x μg mL^−1 were added to each well. The plates were incubated at 30 °C (for Bacillus subtilis and Bacillus cereus) or 37 °C (for other bacteria) for 18 hours. After incubation, the minimum inhibitory concentration (MIC value) was determined (the lowest concentration of the tested compounds that prevents bacterial growth) and expressed in μg mL^−1. The experiment was conducted in three independent replicates. Ciprofloxacin (Sigma Aldrich, Saint Louis, MO, USA) was used as a reference antimicrobial agent against Gram-negative bacteria, while vancomycin (Sigma Aldrich, Saint Louis, MO, USA) was used as a reference antimicrobial agent against Gram-positive bacteria.
# [3] = system: Listeria monocytogenes ATCC 19115; test: MIC determination; assay type: cell-based; conditions: Listeria monocytogenes ATCC 19115; 18 h
# Protocol: as §1, §3, §4
# [4] = system: Bacillus cereus ŁOCK 0807; test: MIC determination; assay type: cell-based; conditions: Bacillus cereus ŁOCK 0807; 18 h
# Protocol: as §1, §3, §4
# [5] = system: Staphylococcus aureus ATCC 6538; test: MIC determination; assay type: cell-based; conditions: S. aureus ATCC 6538; 18 h
# Protocol: as §1, §3, §4
# [6] = system: Bacillus subtilis ATCC 6633; test: MIC determination; assay type: cell-based; conditions: 18 h
# Protocol: as §1, §3, §4
# [7] = system: Escherichia coli ATCC 10530; test: MIC determination; assay type: cell-based; conditions: Escherichia coli ATCC 10530; 18 h
# Protocol: as §1, §3, §4
# [8] = system: Staphylococcus epidermidis ATCC 12228; test: MIC determination; assay type: cell-based; conditions: S. epidermidis ATCC 12228; 18 h
# Protocol: as §1, §3, §4
# [9] = system: Enterococcus faecalis ATCC 29212; test: MIC determination; assay type: cell-based; conditions: E. faecalis ATCC 29212; 18 h
# Protocol: as §1, §3, §4
# [10] = system: Salmonella typhimurium ATCC 14028; test: MIC determination; assay type: cell-based; conditions: S. typhimurium ATCC 14028, 18 h
# Protocol: as §1, §3, §4
# [11] = system: normal skin fibroblast BJ cells; test: MTT cell viability assay; assay type: cell-based, human; conditions: BJ normal fibroblasts; 48 hours of incubation
# Protocol: (§5) The glioblastoma cell lines LN-229 and U87 and the reference human normal skin fibroblast BJ were obtained from the American Type Culture Collection (ATCC). Cells were grown as monolayers when cultured in cell culture flasks and cultured in Dulbecco's Modified Eagle Medium (DMEM) – LN-229 and Eagle's Minimum Essential Medium (EMEM) – U87 and BJ, supplemented with 10% (v/v) fetal bovine serum, penicillin (10 000 U mL^−1), streptomycin (10 mg mL^−1) and amphotericin B (250 μg mL^−1). The cells were incubated at 37 °C, 5% CO2 atmosphere. The cells were maintained in the logarithmic growth phase by regular passage at 80% confluence.
# (§6) The cytotoxicity of the tested compounds was evaluated against both human glioblastoma LN-229 and U-87 as well as normal BJ cell lines. The cells were plated in 96-well culture plates (2 × 10^4 well) and after 24 h incubation the cells were treated with the tested compounds in the concentration range 1–50 μM. The cells were cultured for the next 48 h. The cytotoxicity of the compounds was evaluated using the MTT colorimetric method as previously described.[28,29] IC50 values were determined using the AAT Bioquest IC50 calculator as the concentration of compounds capable of reducing cell viability by 50%. The experiment was performed in triplicate for each concentration. To examine the cytotoxic effect of compounds on cell morphology, cells were examined under an inverted phase contrast microscope Nikon Eclipse Ti with NIS Element software (Tokyo, Japan).
# glioblastoma U87 cells = test: MTT cell viability assay; assay type: cell-based, human; conditions: 48 hours of incubation
# Protocol: as §5, §6
# [12] = system: glioblastoma LN-229 cells; test: MTT cell viability assay; assay type: cell-based, human; conditions: 48 hours of incubation
# Protocol: as §5, §6
# [13] = system: S. Typhimurium ATCC 14028; test: Diffusion-well method, inhibition zones; assay type: cell-based, Salmonella typhimurium; conditions: 500 µg/mL, wells 10 mm
# Protocol: as §1, §2
# [14] = system: L. monocytogenes ATCC 19115; test: Diffusion-well method, inhibition zones; assay type: cell-based, Listeria monocytogenes; conditions: 500 µg/mL, wells 10 mm
# Protocol: as §1, §2
smiles,measurement,setting,value
"NC(=NN=Cc1ccccc1)c1cncc(Cl)n1.O.O=[N+]([O-])[O-].[Ag+] [Complex 1, AgL1NO3 × H2O]",Inhibition zone,[1],18 mm
same,Inhibition zone,S. aureus ATCC 25923,20 mm
same,Inhibition zone,S. aureus ATCC 6538,16 mm
same,MIC,[2],< 10 µg/mL
same,MIC,[2]; listed as 1,<10 µg/mL
same,MIC,[3],< 10 µg/mL
same,MIC,[4],50 µg/mL
same,MIC,[5],< 10 µg/mL
same,MIC,[6],50 µg/mL
same,MIC,[7],< 10 µg/mL
same,MIC,[8],10 µg/mL
same,MIC,[9],50 µg/mL
same,MIC,[10],< 10 µg/mL
same,MIC,[10]; listed as 1,<10 µg/mL
same,IC50,[11],20.5 ± 5.21 µM
same,IC50,glioblastoma U87 cells,8.15 ± 2.67 µM
same,IC50,[12],25.2 ± 3.75 µM
same,Inhibition zone,[13],17 mm
same,Inhibition zone,[14],19 mm

# Reference: article PMC12150283, “Synthesis of new Ag(I) and Cd(II) hydrozanomide-based complexes with antibacterial and anticancer properties” (RSC Advances, 2025)
